In brackets after ≈: the same amount, converted by molar mass. Activity calls are given as the source filed them. The calls are words filed in the database; no cut-off is given here.
Tests used:
[1] = test system: Staphylococcus aureus; experiment: Antibiofilm activity against methicillin-resistant Staphylococcus aureus assessed as inhibition of biofilm formation at 2 times of MIC by crystal violet staining based analysis relative to control; assay type: functional
[2] = test system: HEK-293T; experiment: Cytotoxicity against HEK293T cells at 64 microg/ml by MTT assay; assay type: toxicity, cell-based; conditions: human, dose 64 µg/ml
[3] = test system: Staphylococcus aureus; experiment: Synergistic antibacterial activity against methicillin-resistant Staphylococcus aureus assessed as fractional inhibitory concentration index in presence of chloramphenicol; assay type: functional
[4] = test system: Cell membrane; experiment: Disruption of cell membrane integrity in methicillin-resistant Staphylococcus aureus assessed as cell rupture at 2 to 4 times of MIC by scanning electron microscopic analysis; assay type: subcellular
[5] = test system: Staphylococcus aureus; experiment: Antibacterial activity against methicillin-resistant Staphylococcus aureus in presence of DNA; assay type: functional, organism-based
[6] = test system: Staphylococcus aureus; experiment: Synergistic antibacterial activity against methicillin-resistant Staphylococcus aureus assessed as fractional inhibitory concentration index in presence of lincomycin hydrochloride; assay type: functional
[7] = test system: Pseudomonas aeruginosa; experiment: Antimicrobial activity against Pseudomonas aeruginosa; assay type: functional
[8] = test system: Staphylococcus aureus; experiment: Antimicrobial activity against methicillin-resistant Staphylococcus aureus in presence of phosphatidylethanolamine; assay type: functional, organism-based
[9] = test system: Staphylococcus aureus; experiment: Antibiofilm activity against methicillin-resistant Staphylococcus aureus assessed as reduction in number of live cells at 8 times of MIC (reference value: 7.79 log10CFU/ml); assay type: functional
[10] = test system: Staphylococcus aureus; experiment: Antibacterial activity against methicillin-resistant Staphylococcus aureus assessed as inhibition of bacterial growth at 1 times of MIC; assay type: functional, organism-based
[11] = test system: Escherichia coli; experiment: Antimicrobial activity against Escherichia coli; assay type: functional
[12] = test system: Cell membrane; experiment: Disruption of cell membrane integrity in methicillin-resistant Staphylococcus aureus assessed as increase in PI fluorescence at 2 to 8 times of MIC by PI staining based fluorescence analysis; assay type: subcellular
[13] = test system: Candida albicans; experiment: Antimicrobial activity against fluconazole-resistant Candida albicans; assay type: functional
[14] = test system: Staphylococcus aureus; experiment: Antimicrobial activity against methicillin-resistant Staphylococcus aureus in presence of cardiolipin; assay type: functional, organism-based
[15] = test system: Mitochondrial membrane; experiment: Induction of mitochondrial membrane depolarization in methicillin-resistant Staphylococcus aureus assessed as increase in fluorescence intensity at 1 to 8 times of MIC by DiSC3(5) staining based analysis; assay type: cell membranes
[16] = test system: Staphylococcus aureus; experiment: Antibacterial activity against methicillin-resistant Staphylococcus aureus at sub-MIC measured after 20 days of continuous passage; assay type: functional, organism-based; conditions: time 20.0 day
[17] = test system: Staphylococcus aureus; experiment: Synergistic antibacterial activity against methicillin-resistant Staphylococcus aureus assessed as fractional inhibitory concentration index in presence of ampicillin; assay type: functional
[18] = test system: Staphylococcus aureus; experiment: Antibiofilm activity against methicillin-resistant Staphylococcus aureus assessed as decrease in biofilm biomass at 1 to 8 times of MIC by crystal violet staining based analysis; assay type: functional, organism-based
[19] = test system: DNA; experiment: Binding affinity to […] methicillin-resistant Staphylococcus aureus DNA assessed as inhibition of DNA migration by electrophoretic analysis; assay type: nucleic-acid assay
[20] = test system: Cell membrane; experiment: Disruption of cell membrane integrity in methicillin-resistant Staphylococcus aureus assessed as nucleic acid leakage by absorbance based analysis; assay type: subcellular
[21] = test system: Staphylococcus aureus; experiment: Antimicrobial activity against Staphylococcus aureus 29; assay type: functional
[22] = test system: Staphylococcus aureus; experiment: Antimicrobial activity against methicillin-resistant Staphylococcus aureus 011; assay type: functional
[23] = test system: Staphylococcus aureus; experiment: Antimicrobial activity against Staphylococcus aureus 10; assay type: functional
[24] = Selectivity index, ratio of HC50 for hemolytic activity against Mianyang red blood cells (unknown origin) to MIC for antimicrobial activity against methicillin resistant Staphylococcus aureus 003; assay type: toxicity, cell-based, RBC; conditions: read-out: Selectivity Index
[25] = test system: Cell membrane; experiment: Disruption of cell membrane integrity in Candida albicans; assay type: subcellular
[26] = test system: Cell membrane; experiment: Disruption of cell membrane integrity in methicillin-resistant Staphylococcus aureus assessed as cell deformation at 2 to 4 times of MIC by scanning electron microscopic analysis; assay type: subcellular
[27] = test system: DNA; experiment: Binding affinity to methicillin-resistant Staphylococcus aureus DNA assessed as change in DNA conformation by UV absorption based analysis; assay type: nucleic-acid assay
[28] = test system: Staphylococcus aureus; experiment: Antimicrobial activity against methicillin-resistant Staphylococcus aureus in presence of peptidoglycan; assay type: functional, organism-based
[29] = test system: DNA; experiment: Binding affinity to methicillin-resistant Staphylococcus aureus DNA minor groove assessed as decrease in fluorescence by DAPI staining based analysis; assay type: nucleic-acid assay
[30] = test system: Staphylococcus aureus; experiment: Antimicrobial activity against methicillin-resistant Staphylococcus aureus 003; assay type: functional
[31] = test system: DNA; experiment: Binding affinity to methicillin-resistant Staphylococcus aureus DNA assessed as effect on helical structure by measuring change in positive and negative peaks at 10 to 40 microg/ml by CD spectra; assay type: nucleic-acid assay; conditions: dose 10-40 µg/ml
[32] = test system: Staphylococcus aureus; experiment: Bactericidal activity against methicillin-resistant Staphylococcus aureus assessed as eradication of bacterial growth at 4 times of MIC measured within 6 hrs relative to control; assay type: functional
[33] = test system: Staphylococcus aureus; experiment: Synergistic antibacterial activity against methicillin-resistant Staphylococcus aureus assessed as fractional inhibitory concentration index in presence of streptomycin; assay type: functional
[34] = test system: Staphylococcus aureus; experiment: Synergistic antibacterial activity against methicillin-resistant Staphylococcus aureus assessed as fractional inhibitory concentration index in presence of chlorpromazine; assay type: functional
[35] = Hemolytic activity against Mianyang red blood cells (unknown origin); assay type: toxicity, cell-based, RBC
[36] = test system: Enterococcus faecalis; experiment: Antimicrobial activity against vancomycin resistant Enterococcus faecalis ATCC 51299; assay type: functional
[37] = test system: DNA; experiment: Binding affinity to methicillin-resistant Staphylococcus aureus DNA assessed as decrease in fluorescence by PI staining based analysis; assay type: nucleic-acid assay
[38] = test system: Staphylococcus aureus; experiment: Synergistic antibacterial activity against methicillin-resistant Staphylococcus aureus assessed as fractional inhibitory concentration index in presence of fluconazole; assay type: functional
[39] = test system: Staphylococcus aureus; experiment: Synergistic antibacterial activity against methicillin-resistant Staphylococcus aureus assessed as fractional inhibitory concentration index in presence of cefoxitin; assay type: functional
[40] = test system: Staphylococcus aureus; experiment: Bactericidal activity against methicillin-resistant Staphylococcus aureus; assay type: functional, organism-based
[41] = test system: Staphylococcus aureus; experiment: Synergistic antibacterial activity against methicillin-resistant Staphylococcus aureus assessed as fractional inhibitory concentration index in presence of ceftriaxone; assay type: functional
[42] = test system: Staphylococcus aureus; experiment: Antibiofilm activity against methicillin-resistant Staphylococcus aureus assessed as decrease in biofilm density at 1 to 8 times of MIC incubated for 24 hrs by fluorescence microscopic analysis; assay type: functional, organism-based
[43] = test system: Staphylococcus aureus; experiment: Synergistic antibacterial activity against methicillin-resistant Staphylococcus aureus assessed as fractional inhibitory concentration index in presence of vancomycin; assay type: functional
[44] = test system: Staphylococcus aureus; experiment: Selectivity ratio of MBEC for methicillin-resistant Staphylococcus aureus to MIC for methicillin resistant Staphylococcus aureus; assay type: functional
[45] = test system: DNA; experiment: Binding affinity to methicillin-resistant Staphylococcus aureus DNA assessed as inhibition of DNA migration at 75 microg/ml by electrophoretic analysis; assay type: nucleic-acid assay; conditions: dose 75.0 µg/ml
[46] = test system: Staphylococcus aureus; experiment: Synergistic antibacterial activity against methicillin-resistant Staphylococcus aureus assessed as fractional inhibitory concentration index in presence of azithromycin; assay type: functional
[47] = test system: Cell membrane; experiment: Disruption of cell membrane integrity in methicillin-resistant Staphylococcus aureus assessed as increase in ROS level at 2 to 8 times of MIC incubated for 1 hrs; assay type: subcellular
[48] = test system: Staphylococcus aureus; experiment: Antimicrobial activity against Staphylococcus aureus 31; assay type: functional
[49] = test system: Staphylococcus aureus; experiment: Drug resistance, ratio of MIC for methicillin-resistant Staphylococcus aureus measured after 20 days of continuous passage to MIC for methicillin-resistant Staphylococcus aureus measured after first exposure; assay type: functional

With CC1(C)CC[C@]2(C(=O)O)CC[C@]3(C)C(=CC[C@@H]4[C@@]5(C)CC[C@H](OCC(O)CCCNC(=N)N)C(C)(C)[C@@H]5CC[C@]43C)[C@@H]2C1 (stereo partly specified) the “inhibition (INH)” value [1] was >80%, the Activity [2] was “Non-Toxic” and the “fractional inhibitory concentration index (FICI)” value [3] was “<=0.5”. For the same compound, the Activity [4] was “Active”, the Activity [5] was “inactive” and the “fractional inhibitory concentration index (FICI)” value [6] was “<=0.5”. The MIC [7] was > 64 µg/mL, the Activity [8] was “inactive” and the Activity [9] was 2.7 log10CFU/ml. The Activity [10] was “Active”, the MIC [11] was > 64 µg/mL and the Activity [12] was “Active”. The MIC [13] was 2 µg/mL (≈ 3.33 µM), the Activity [14] was “inactive” and the Activity [15] was “Dose-Dependent Effect”. The Activity [16] was “Active”, the “fractional inhibitory concentration index (FICI)” value [17] was “<=0.5” and the Activity [18] was “Active”. The Activity [19] was “Active”, the Activity [20] was “Active” and the MIC [21] was 4 µg/mL (≈ 6.67 µM). The MIC [22] was 2 µg/mL (≈ 3.33 µM), the MIC [23] was 2 µg/mL (≈ 3.33 µM) and the selectivity ratio [24] was < 390. The Activity [25] was “Active”, the Activity [26] was “Active” and the Activity [27] was “Active”. For the same compound, the Activity [28] was “Active”, the Activity [29] was “inactive” and the MIC [30] was > 2 µg/mL. For the same compound, the Activity [31] was “Active”, the Activity [32] was 99.99% and the “fractional inhibitory concentration index (FICI)” value [33] was 0.25. The “fractional inhibitory concentration index (FICI)” value [34] was “<=0.5”, the HC50 [35] was 779 µg/mL and the MIC [36] was 2 µg/mL (≈ 3.33 µM). The Activity [37] was “Dose-Dependent Effect”, the “fractional inhibitory concentration index (FICI)” value [38] was “<=0.5” and the “fractional inhibitory concentration index (FICI)” value [39] was “<=0.5”. For the same compound, the Activity [40] was “Active”, the “fractional inhibitory concentration index (FICI)” value [41] was “<=0.5” and the Activity [42] was “Dose-Dependent Effect”. For the same compound, the “fractional inhibitory concentration index (FICI)” value [43] was “<=0.5”, the selectivity ratio [44] was 16 and the Activity [45] was “Active”. The “fractional inhibitory concentration index (FICI)” value [46] was “<=0.5”, the Activity [47] was “Active” and the MIC [48] was 2 µg/mL (≈ 3.33 µM).
In the case of CCn1cc(C(=O)O)c(=O)c2cc(F)c(N3CCNCC3)cc21 [NORFLOXACIN], the Ratio [49] is reported as 32.
In the case of CC1(C)CC[C@]2(C(=O)O)CC[C@]3(C)C(=CC[C@@H]4[C@@]5(C)CC[C@H](OCC(O)CCCCCCCCNC(=N)N)C(C)(C)[C@@H]5CC[C@]43C)[C@@H]2C1 (stereo partly specified), the MIC [7] is reported as > 64 µg/mL, the MIC [11] is reported as > 64 µg/mL and the MIC [13] is reported as 16 µg/mL (≈ 23.9 µM). The MIC [21] was 8 µg/mL (≈ 11.9 µM), the MIC [22] was 4 µg/mL (≈ 5.97 µM) and the MIC [23] was 8 µg/mL (≈ 11.9 µM). It also gave a selectivity ratio [24] of 72.1, an MIC [30] of 8 µg/mL (≈ 11.9 µM) and an HC50 [35] of 577 µg/mL. For the same compound, the MIC [36] was 8 µg/mL (≈ 11.9 µM) and the MIC [48] was 16 µg/mL (≈ 23.9 µM).
For CC1(C)CC[C@]2(C(=O)O)CC[C@]3(C)C(=CC[C@@H]4[C@@]5(C)CC[C@H](OCC(O)CCCCN)C(C)(C)[C@@H]5CC[C@]43C)[C@@H]2C1 (stereo partly specified), the MIC [7] was > 64 µg/mL, the MIC [11] was > 64 µg/mL and the MIC [13] was 16 µg/mL (≈ 28 µM). For the same compound, the MIC [21] was 4 µg/mL (≈ 6.99 µM), the MIC [22] was 4 µg/mL (≈ 6.99 µM) and the MIC [23] was 4 µg/mL (≈ 6.99 µM). For the same compound, the selectivity ratio [24] was 6.54, the MIC [30] was 4 µg/mL (≈ 6.99 µM) and the HC50 [35] was 26.1 µg/mL. The MIC [36] was 8 µg/mL (≈ 14 µM) and the MIC [48] was 8 µg/mL (≈ 14 µM).

— ChEMBL document CHEMBL6127107, “Oleanolic acid derivatives against drug-resistant bacteria and fungi by multi-targets to avoid drug resistance” (Eur J Med Chem, 2024)
